The text below walks through data of PubChem BioAssay AID180 (DTP/NCI, 2004).

The experiment deals with BDF1 mice, Adenocarcinoma 755 s.c., tumor weight T/C. Put plainly: NCI In Vivo Anticancer Drug Screen. Data for tumor model Adenocarcinoma 755 (subcutaneous) in B6D2F1 (BDF1) mice. Particulars: endpoint: mean tumor weight, higher = larger tumour. The gist of the method: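 Readout: T/C, i.e. treated-group measurement over vehicle-control measurement. Endpoint is survival or tumor size in tumor-bearing mice given compound.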

Each structure is given as a SMILES string. “And” between values parts separate entries of the source, which are not always exact repeats. Equal entries are not always repeated.

By T/C is commonly meant the ratio of treated to control. Regarding `C=C(C)CSc1ncnc2nc[nH]c12`, the T/C is, setting by setting: (dose: 1.5 mg/kg/injection, schedule: Q01DX011 (ip), vehicle: other) 82 % of control; (dose: 3.0 mg/kg/injection, schedule: Q01DX011 (ip), vehicle: other) 78 % of control; (dose: 7.0 mg/kg/injection, schedule: Q01DX011 (ip), vehicle: other) 22 % of control; (dose: 15.0 mg/kg/injection, schedule: Q01DX011 (ip), vehicle: other) 5 % of control; (dose: 30.0 mg/kg/injection, schedule: Q01DX011 (ip), vehicle: other) 5 % of control and 14 % of control; (dose: 60.0 mg/kg/injection, schedule: Q01DX011 (ip), vehicle: other) 2 % of control. Moreover, the T/C (dose: 120.0 mg/kg/injection, schedule: Q01DX011 (ip), vehicle: other) was 2 % of control.

As to `O=C(O)C(CS(=O)(=O)O)Nc1ncnc2nc[nH]c12` (stereo not given), the T/C reads like this: (dose: 3.1 mg/kg/injection, schedule: Q01DX011 (ip), vehicle: saline) 65 % of control; (dose: 6.2 mg/kg/injection, schedule: Q01DX011 (ip), vehicle: saline) 40 % of control; (dose: 12.5 mg/kg/injection, schedule: Q01DX011 (ip), vehicle: saline) 40 % of control and 43 % of control; (dose: 18.75 mg/kg/injection, schedule: Q01DX011 (ip), vehicle: saline) 38 % of control; (dose: 25.0 mg/kg/injection, schedule: Q01DX011 (ip), vehicle: saline) 10 % of control; (dose: 28.12 mg/kg/injection, schedule: Q01DX011 (ip), vehicle: saline) 12 % of control. Besides, the T/C is, setting by setting: (dose: 45.0 mg/kg/injection, schedule: Q01DX011 (ip), vehicle: saline) 4 % of control; (dose: 75.0 mg/kg/injection, schedule: Q01DX011 (ip), vehicle: saline) 7 % of control; (dose: 225.0 mg/kg/injection, schedule: Q01DX011 (ip), vehicle: saline) 7 % of control.

On to `Cn1cnc2nc[nH]c2c1=N`, for which the T/C was 115 % of control (dose: 30.0 mg/kg/injection, schedule: Q01DX011 (ip), vehicle: saline); 93 % of control (dose: 60.0 mg/kg/injection, schedule: Q01DX011 (ip), vehicle: saline); 74 % of control (dose: 120.0 mg/kg/injection, schedule: Q01DX011 (ip), vehicle: saline); 109 % of control (dose: 240.0 mg/kg/injection, schedule: Q01DX011 (ip), vehicle: saline).

With `CCSCCC(N)C(=O)O` (stereo not given), the T/C reads like this: (dose: 13.13 mg/kg/injection, schedule: Q01DX011 (ip), vehicle: carboxymethylcellulose (CMC)) 171 % of control; (dose: 18.0 mg/kg/injection, schedule: Q01DX011 (ip), vehicle: methylcellulose (MC)) 86 % of control; (dose: 20.5 mg/kg/injection, schedule: Q01DX011 (ip), vehicle: carboxymethylcellulose (CMC)) 99 % of control; (dose: 26.25 mg/kg/injection, schedule: Q01DX011 (ip), vehicle: carboxymethylcellulose (CMC)) 118 % of control; (dose: 37.5 mg/kg/injection, schedule: Q01DX011 (ip), vehicle: methylcellulose (MC)) 107 % of control; (dose: 52.5 mg/kg/injection, schedule: Q01DX011 (ip), vehicle: carboxymethylcellulose (CMC)) 121 % of control. The T/C reads like this: (dose: 56.5 mg/kg/injection, schedule: Q01DX011 (ip), vehicle: carboxymethylcellulose (CMC)) 46 % of control; (dose: 82.0 mg/kg/injection, schedule: Q01DX011 (ip), vehicle: carboxymethylcellulose (CMC)) 65 % of control; (dose: 90.4 mg/kg/injection, schedule: Q01DX011 (ip), vehicle: other) 156 % of control; (dose: 105.0 mg/kg/injection, schedule: Q01DX011 (ip), vehicle: carboxymethylcellulose (CMC)) 93 % of control; (dose: 113.0 mg/kg/injection, schedule: Q01DX011 (ip), vehicle: carboxymethylcellulose (CMC)) 38 % of control; (dose: 113.0 mg/kg/injection, schedule: Q01DX011 (ip), vehicle: other) 109 % of control. In addition, the T/C was 37 % of control (dose: 150.66 mg/kg/injection, schedule: Q01DX011 (ip), vehicle: other); 84 % of control (dose: 226.0 mg/kg/injection, schedule: Q01DX011 (ip), vehicle: carboxymethylcellulose (CMC)); 49 % of control (dose: 226.0 mg/kg/injection, schedule: Q01DX011 (ip), vehicle: other).

For `O=P1(N(CCF)CCF)NCCCO1` (stereo not given), the T/C (dose: 3.75 mg/kg/injection, schedule: Q01DX011 (ip), vehicle: saline) is 62 % of control; the T/C (dose: 7.5 mg/kg/injection, schedule: Q01DX011 (ip), vehicle: saline) is 79 % of control; the T/C (dose: 15.0 mg/kg/injection, schedule: Q01DX011 (ip), vehicle: saline) was 26 % of control.

In the case of `c1ccc(CNc2ncnc3[nH]ncc23)cc1`, the T/C (dose: 4.0 mg/kg/injection, schedule: Q01DX011 (ip), vehicle: carboxymethylcellulose (CMC)) was 83 % of control; the T/C (dose: 8.0 mg/kg/injection, schedule: Q01DX011 (ip), vehicle: carboxymethylcellulose (CMC)) is 69 % of control; the T/C (dose: 16.0 mg/kg/injection, schedule: Q01DX011 (ip), vehicle: carboxymethylcellulose (CMC)) was 22 % of control; the T/C (dose: 31.25 mg/kg/injection, schedule: Q01DX011 (ip), vehicle: carboxymethylcellulose (CMC)) is 54 % of control.

For the compound `O=C(O)CCC(=O)Nc1nccs1`, the T/C reads like this: (dose: 150.0 mg/kg/injection, schedule: Q01DX011 (ip), vehicle: carboxymethylcellulose (CMC)) 71 % of control; (dose: 300.0 mg/kg/injection, schedule: Q01DX011 (ip), vehicle: carboxymethylcellulose (CMC)) 83 % of control; (dose: 600.0 mg/kg/injection, schedule: Q01DX011 (ip), vehicle: carboxymethylcellulose (CMC)) 63 % of control.

As to `C[C@]12CC[C@@H]3c4ccc(O)cc4CC[C@H]3[C@@H]1CC[C@@H]2O`, the T/C reads like this: (dose: 125.0 mg/kg/injection, schedule: Q01DX011 (sc), vehicle: steriod suspending solution) 77 % of control; (dose: 250.0 mg/kg/injection, schedule: Q01DX011 (sc), vehicle: steriod suspending solution) 32 % of control; (dose: 500.0 mg/kg/injection, schedule: Q01DX011 (sc), vehicle: steriod suspending solution) 65 % of control; (dose: 1000.0 mg/kg/injection, schedule: Q01DX011 (sc), vehicle: steriod suspending solution) 42 % of control.

As for `O=C1C(NC(=O)C2CCCCC2)=C(N2CC2)C(=O)C(NC(=O)C2CCCCC2)=C1N1CC1`, the T/C (dose: 43.75 mg/kg/injection, schedule: Q01DX011 (ip), vehicle: carboxymethylcellulose (CMC)) was 48 % of control; the T/C (dose: 44.0 mg/kg/injection, schedule: Q01DX011 (ip), vehicle: carboxymethylcellulose (CMC)) was 67 % of control; the T/C (dose: 44.0 mg/kg/injection, schedule: Q01DX011 (ip), vehicle: other) was 76 % of control; the T/C (dose: 87.5 mg/kg/injection, schedule: Q01DX011 (ip), vehicle: carboxymethylcellulose (CMC)) is 9 % of control and 30 % of control; the T/C (dose: 88.0 mg/kg/injection, schedule: Q01DX011 (ip), vehicle: other) was 21 % of control; the T/C (dose: 100.0 mg/kg/injection, schedule: Q01DX011 (ip), vehicle: carboxymethylcellulose (CMC)) was 104 % of control. The T/C was 12 % of control and 33 % of control (dose: 175.0 mg/kg/injection, schedule: Q01DX011 (ip), vehicle: carboxymethylcellulose (CMC)); 28 % of control (dose: 175.0 mg/kg/injection, schedule: Q01DX011 (ip), vehicle: other); 93 % of control (dose: 200.0 mg/kg/injection, schedule: Q01DX011 (oral), vehicle: carboxymethylcellulose (CMC)); 50 % of control (dose: 400.0 mg/kg/injection, schedule: Q01DX011 (oral), vehicle: carboxymethylcellulose (CMC)); 68 % of control (dose: 800.0 mg/kg/injection, schedule: Q01DX011 (oral), vehicle: carboxymethylcellulose (CMC)).

In the case of `Cn1c(=O)c2c(nc(N/N=C/c3cccc(Br)c3)n2C)n(C)c1=O`, the T/C reads like this: (dose: 30.0 mg/kg/injection, schedule: Q01DX011 (ip), vehicle: carboxymethylcellulose (CMC)) 93 % of control; (dose: 60.0 mg/kg/injection, schedule: Q01DX011 (ip), vehicle: carboxymethylcellulose (CMC)) 111 % of control; (dose: 120.0 mg/kg/injection, schedule: Q01DX011 (ip), vehicle: carboxymethylcellulose (CMC)) 88 % of control.

For the compound `C[C@]12CCC(=O)C=C1CC[C@@H]1[C@@H]2[C@@H](O)C[C@@]2(C)[C@H]1CC[C@]2(O)C(=O)COC(=O)COCC(=O)O`, the T/C by setting is: (dose: 50.0 mg/kg/injection, schedule: Q01DX011 (ip), vehicle: steriod suspending solution) 53 % of control; (dose: 50.0 mg/kg/injection, schedule: Q01DX011 (sc), vehicle: steriod suspending solution) 54 % of control; (dose: 100.0 mg/kg/injection, schedule: Q01DX011 (ip), vehicle: steriod suspending solution) 22 % of control; (dose: 100.0 mg/kg/injection, schedule: Q01DX011 (sc), vehicle: steriod suspending solution) 62 % of control; (dose: 200.0 mg/kg/injection, schedule: Q01DX011 (ip), vehicle: steriod suspending solution) 12 % of control; (dose: 200.0 mg/kg/injection, schedule: Q01DX011 (sc), vehicle: steriod suspending solution) 56 % of control. The T/C (dose: 400.0 mg/kg/injection, schedule: Q01DX011 (sc), vehicle: steriod suspending solution) is 31 % of control.
